# In US11753408B2, “Compounds and method for blocking transmission of malarial parasite” (The United States of America, as represented by the …, priority 2016, dated 2023):
# pEC50: −log10 of the molar value.
# How the values were obtained:
# Solubility at pH 7.4 = type: physicochemical
# mTOR = mTOR (Homo sapiens, UniProt P42345); experiment: mTOR activity (no method described); type: biochemical
# [1] = Microsomal stability (rat); type: in vitro ADME; details: rat microsomes
# PAMPA permeability = type: in vitro ADME
# [2] = test system: Asexual parasites of P. falciparum strain 3D7; experiment: In vitro drug activity on asexual parasites (SYBR Green assay); type: cell-based, Plasmodium falciparum
# In short: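 SYBR Green I fluorescence (ex 490, em 520 nm) was read after freeze-thaw lysis and 30 min staining at room temperature. Before that, drug-treated cultures (0.5% parasitemia, 2% hematocrit, DMSO ≤0.5%) were incubated 72 h, in duplicate.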
SMILES,Sol @ pH 7.4 (Solubility at pH 7.4),mTOR (mTOR),Microsomal Stability (rat) T1/2 [1],PAMPA Permeability (PAMPA permeability),pEC50 [2]
COc1cc(C(=O)NC2CC2)ccc1-n1c(=O)ccc2cnc3ccc(-c4ccc(F)c(O)c4)cc3c21 [Compound 272],11.8 ug/mL,5.227 µM,21.9 min,626 ×10⁻⁶ cm/s,7.28
Cc1cc(C(=O)NCCN(C)C)ccc1-n1c(=O)ccc2cnc3ccc(-c4ccc(Cl)cc4)cc3c21 [Compound 274],63.8 ug/mL,4.9 µM,21.4 min,1010 ×10⁻⁶ cm/s,7.39
Cc1cc(C(=O)NCCCN(C)C)ccc1-n1c(=O)ccc2cnc3ccc(-c4ccc(Cl)cc4)cc3c21 [Compound 275],65.6 ug/mL,4.039 µM,19.9 min,427 ×10⁻⁶ cm/s,7.35
CCN(CC)CCNC(=O)c1ccc(-n2c(=O)ccc3cnc4ccc(-c5ccc(Cl)cc5)cc4c32)c(C)c1 [Compound 276],34.8 ug/mL,21.76 µM,5.8 min,973 ×10⁻⁶ cm/s,6.65
Cc1cc(C(=O)NCCN2CCN(C)CC2)ccc1-n1c(=O)ccc2cnc3ccc(-c4ccc(Cl)cc4)cc3c21 [Compound 277],19.9 ug/mL,3.631 µM,3.8 min,354 ×10⁻⁶ cm/s,7.08
Cc1cc(C(=O)NCCCN2CCCCC2)ccc1-n1c(=O)ccc2cnc3ccc(-c4ccc(Cl)cc4)cc3c21 [Compound 278],>83 ug/mL,8 µM,2.6 min,1380 ×10⁻⁶ cm/s,6.96
Cc1cc(C(=O)NC2CCN(CCO)CC2)ccc1-n1c(=O)ccc2cnc3ccc(-c4ccc(Cl)cc4)cc3c21 [Compound 279],>84 ug/mL,1.317 µM,15.8 min,49.1 ×10⁻⁶ cm/s,7.30
Cc1cc(C(=O)NC2CCN(CCN(C)C)CC2)ccc1-n1c(=O)ccc2cnc3ccc(-c4ccc(Cl)cc4)cc3c21 [Compound 280],73.6 ug/mL,1.609 µM,>30 min,49.1 ×10⁻⁶ cm/s,6.82
Cc1cc(C(=O)NCCCN(CCO)CCO)ccc1-n1c(=O)ccc2cnc3ccc(-c4ccc(Cl)cc4)cc3c21 [Compound 281],>86 ug/mL,2.18 µM,3 min,33.4 ×10⁻⁶ cm/s,7.56
Cc1cc(C(=O)NCCCN2CCN(C)CC2)ccc1-n1c(=O)ccc2cnc3ccc(-c4ccc(Cl)cc4)cc3c21 [Compound 282],>86 ug/mL,4.536 µM,4.1 min,598 ×10⁻⁶ cm/s,7.15
Cc1cc(C(=O)NCCCN2CCC(C)CC2)ccc1-n1c(=O)ccc2cnc3ccc(-c4ccc(Cl)cc4)cc3c21 [Compound 283],70.7 ug/mL,15.09 µM,2.7 min,1180 ×10⁻⁶ cm/s,7.16
CCN(CC)CCNC(=O)c1ccc(-n2c(=O)ccc3cnc4ccc(-c5ccc(Cl)cc5)cc4c32)cc1 [Compound 284],36.6 ug/mL,9.354 µM,7.5 min,281 ×10⁻⁶ cm/s,6.74
O=C(NCCN1CCC1)c1ccc(-n2c(=O)ccc3cnc4ccc(-c5ccc(Cl)cc5)cc4c32)cc1 [Compound 285],41.6 ug/mL,1.506 µM,>30 min,159 ×10⁻⁶ cm/s,7.22
CC1CCN(CCCNC(=O)c2ccc(-n3c(=O)ccc4cnc5ccc(-c6ccc(Cl)cc6)cc5c43)cc2)CC1 [Compound 286],35.6 ug/mL,11.77 µM,2.4 min,863 ×10⁻⁶ cm/s,7.27
CCC(=O)NCCNC(=O)c1ccc(-n2c(=O)ccc3cnc4ccc(-c5ccc(Cl)cc5)cc4c32)cc1 [Compound 287],<1 ug/mL,2.083 µM,4.3 min,21.7 ×10⁻⁶ cm/s,7.23
O=C(NCC1CCOCC1)c1ccc(-n2c(=O)ccc3cnc4ccc(-c5ccc(Cl)cc5)cc4c32)cc1 [Compound 288],<1 ug/mL,1.258 µM,1.2 min,18.8 ×10⁻⁶ cm/s,6.55
Cc1cc(C(=O)NCCCN2CCS(=O)(=O)CC2)ccc1-n1c(=O)ccc2cnc3ccc(-c4ccc(Cl)cc4)cc3c21 [Compound 289],<1 ug/mL,9.216 µM,1.7 min,141 ×10⁻⁶ cm/s,7.06
CCN(CC)CCCNC(=O)c1ccc(-n2c(=O)ccc3cnc4ccc(-c5ccc(Cl)cc5)cc4c32)c(C)c1 [Compound 290],63.1 ug/mL,4.806 µM,3 min,311 ×10⁻⁶ cm/s,7.19
Cc1cc(C(=O)NCCN2CCCCC2)ccc1-n1c(=O)ccc2cnc3ccc(-c4ccc(Cl)cc4)cc3c21 [Compound 291],0 ug/mL,4.975 µM,3.1 min,773 ×10⁻⁶ cm/s,6.68
Cc1cc(C(=O)NCCN(C)c2ccccc2)ccc1-n1c(=O)ccc2cnc3ccc(-c4ccc(Cl)cc4)cc3c21 [Compound 292],0 ug/mL,15.56 µM,1.7 min,3.4 ×10⁻⁶ cm/s,5.94
Cc1cc(C(=O)NCCN2CCC2)ccc1-n1c(=O)ccc2cnc3ccc(-c4ccc(Cl)cc4)cc3c21 [Compound 293],0 ug/mL,6.103 µM,22.9 min,241 ×10⁻⁶ cm/s,6.83
Cc1cc(C(=O)NCCN2CCCC2)ccc1-n1c(=O)ccc2cnc3ccc(-c4ccc(Cl)cc4)cc3c21 [Compound 295],0 ug/mL,23.74 µM,10.6 min,639 ×10⁻⁶ cm/s,6.79
Cc1cc(C(=O)NCCN2CCCC2)ccc1-n1c(=O)ccc2cnc3ccc(-c4ccc(F)cc4)cc3c21 [Compound 296],0 ug/mL,18.6 µM,7.1 min,510 ×10⁻⁶ cm/s,6.32
Cc1cc(C(=O)NCCCN2CCOCC2)ccc1-n1c(=O)ccc2cnc3ccc(-c4ccc(F)cc4)cc3c21 [Compound 297],0 ug/mL,11.02 µM,1.6 min,936 ×10⁻⁶ cm/s,6.82
CN(CCNC(=O)c1ccc(-n2c(=O)ccc3cnc4ccc(-c5ccc(Cl)cc5)cc4c32)cc1)c1ccccc1 [Compound 298],0 ug/mL,50 µM,1.5 min,148 ×10⁻⁶ cm/s,6.02
CN(C)CC#Cc1ccc2ncc3c(c2c1)n(-c1cccc(C#N)c1)c(=O)n3C [Compound 396],46.4 ug/mL,15.14 µM,>30 min,208 ×10⁻⁶ cm/s,6.84
Cn1c(=O)n(-c2ccc(C(=O)O)cc2)c2c3cc(-c4ccc(Cl)cc4)ccc3ncc21 [Compound 435],30.8 ug/mL,0.3646 µM,>30 min,11 ×10⁻⁶ cm/s,5.44
